Here are results for one sequence from paper PMC2999418, “Biological Activity and Binding Site Characteristics of the PA1b Entomotoxin on Insects from Different Orders” (Journal of Insect Science, 2007).

Like-named read-outs stand apart in the source and are kept apart here.

In one data set the test system is Sitophilus oryzae. To be noted: three natural S. oryzae strains able to feed on pea seeds; ref Grenier et al. 1997; cited from earlier work. From the text: S. oryzae strains resistant to PA1b exist naturally.
The subject of the next data set is Harmonia axyridis. Briefly: Ladybeetle development and survival on artificial diet supplemented with toxin. In kind it is in vivo. The settings on record: 250 µg/g of food. As to the method:
The ladybeetle Harmonia axyridis (Coleoptera) was grown on a pork liver-based artificial diet (Specty et al., unpublished results), and tests were performed using a diet supplemented with the toxin. The development was monitored from L3 up to the pupal stage.
All toxicity assays were carried out using a mixture of PA1b isoforms (98% purity by HPLC). All tests were performed on at least 30 insects for assays and for control test (without toxin), except for the three aphid species (50 insects) and for Trichogramma (more than 300 eggs by assays). When adults were used, the insects were synchronized at the imaginal molt. The statistical analyses were performed using the JMP software (SAS, Grégy-sur-Yerres FRA).
Figure 1. Effects of PA1b on the lady beetle H. axyridis. Tests were done with artificial diet supplemented with the toxin (250 µg/g), and the development of the insects was monitored daily. First bar, control insects; second bar, tested insects. P, Pupae; pP, Pre-pupae; L4,4th instar larvae; L3, 3rd instar larvae.

Data set [1] has as its target PA1b binding protein on membrane extracts. Kind of data set: 125I-PA1b binding (competition) on insect membrane extracts. The arrangement: species or system Aphis gossypii. The settings on record: A. gossypii membrane extracts; competition with purified 3741 isoform. On the procedure: (§1) The isolation of membrane proteins for binding studies was performed as described by Gressent et al. ([2003]). For PA1b degradation tests, insect extracts were prepared as follows, 1 g of insects were ground with a mortar and pestle in liquid nitrogen. The resulting powder was resuspended in 2 ml of extraction buffer (20 mM Tris-HCl pH 8; 0.25 M sucrose; 2 mM MgCl2). The slurry was centrifuged for 2 min at 1000 g, and the supernatant was stored at -2O°C until required. All the operations were performed at 4°C.
(§2) The peptidic toxin PA1b-3471 isoform was labelled with I^125 to a specific radioactivity of about 900 Ci.mmor^-1, and then used for binding studies with membrane extracts, according to Gressent et al. ([2003]).
(§3) PA1b binding activity was present in all insect species, except for the resistant weevil strains and the pea specific pest Bruchus pisorum, regardless of the sensitivity or insensitivity of these insects to PA1b toxicity, as evaluated from our insect bioassays. […] The relative abundance of the binding sites was also slightly different in this group of species, varying from 10 pmol/mg of protein for T. pretiosum to a maximum of 79 pmol/mg of protein for M. persicae.

Data set [2] deals with D. melanogaster protein extracts. Kind of data set: PA1b degradation assay with total insect protein extract. In kind it is in vitro ADME, Drosophila melanogaster. The settings on record: 200 µg D. melanogaster (L3) total protein extract, 10 µg PA1b, pH 3 to 9, 30°C, one night incubation; C18 HPLC; data not shown. On the procedure: as §1
PA1b degradation assays were performed using 10 µg of peptide (PA1b isoform mixture) in a final volume of 100 µl buffer. […]
For all assays, after a one night incubation, 150 µl of methanol were added to the mixture and incubated for 60 min at 4°C. […] PA1b peptide isoforms were detected by their absorbance at 210 nm, quantified by the measurement of the peak area and with reference to known quantities of pure peptide isoform used as standards.

The target of data set [3] is PA1b binding protein on membrane extracts. Kind of data set: 125I-PA1b binding (competition) on insect membrane extracts. On the set-up: species or system Trichogramma pretiosum. To be noted: T. pretiosum membrane extracts; competition with purified 3741 isoform. As to the method: as §1, §2, §3
A further data set relates to C. albicans. Briefly: Antifungal test, fungal growth. It counts as cell-based. The settings on record: increasing toxin concentration up to 64 µg-ml^-1, 24 and 48 hours. As to the method:
(§4) A possible antimicrobial and antifungal activity of PA1b was next tested on four bacterial and three fungal species. The experiments were done using an increasing toxin concentration, up to 64 µg-ml^-1.

Another data set has as its system C. glabrata. Kind of data set: Antifungal test, fungal growth. In kind it is cell-based. To be noted: increasing toxin concentration up to 64 µg-ml^-1, 24 and 48 hours. On the procedure:
as §4

Another data set has as its system A. famigatus. Kind of data set: Antifungal test, fungal growth. In kind it is cell-based. The settings on record: increasing toxin concentration up to 64 µg-ml^-1, 24 and 48 hours. As to the method: as §4
The target of data set [4] is PA1b binding protein on membrane extracts. To be noted: ref Gressent et al (2003), cited from earlier work. From the text: Table 1. Affinity (Kd) and relative abundance (Bmax) of the PA1b binding protein on membrane extracts from different insect species and strains. | column: Kd (nM); Bmax (pmol/mg of protein)
Data set [5] has the same target. The settings on record: ref Gressent et al (2003), cited from earlier work. From the text:
Table 1. Affinity (Kd) and relative abundance (Bmax) of the PA1b binding protein on membrane extracts from different insect species and strains. | column: Kd (nM); Bmax (pmol/mg of protein) || Data obtained from competition experiments, using the purified […] isoform as competitor, are shown in Table 1. PA1b binding activity was present in all insect species, except for the resistant weevil strains and the pea specific pest Bruchus pisorum, regardless of the sensitivity or insensitivity of these insects to PA1b toxicity, as evaluated from our insect bioassays. […] The relative abundance of the binding sites was also slight ...
This is another data set of the same source.

Data set [6] has the same target. Briefly: 125I-PA1b binding (competition) on insect membrane extracts. The arrangement: species or system Harmonia axyridis. The settings on record: H. axyridis membrane extracts; competition with purified 3741 isoform. On the procedure:
as §1, §2, §3

“ASCNGVCSPFEMPPCGTSACRCIPVGLVIGYCR NPSG (bicyclic or more) [PA1b, plant peptide of 37 amino acids purified from pea (Pisum sativum) seeds; entomotoxic cystine-knot peptide with three disulfide bonds]”: the “resistance of pea-feeding S. oryzae strains to the purified toxin” value in the data set on Sitophilus oryzae is reported as “fully resistant”. In addition, in the data set on Harmonia axyridis (by day 12), the “share of survivors that reached the pupal stage” value is “half”. Also, the “insects that reached the L4 stage” value with Harmonia axyridis (started on L3 larvae, after three days (all control insects reached L4)) is recorded as 30%. In the data set on Harmonia axyridis (started on L3 larvae, by day 12 (control 75%)), this sequence came in with a survival of 15%. Besides, the Kd (usually the constant that tells how readily two partners part at equilibrium) in [1] is 39 nM; in [3] it was 56 nM; in data set [4] (S. granarius Brayard membrane extracts) it was 6.3 nM; in data set [4] (S. zeamais Ls membrane extracts) it was 9 nM; in [5] (S. oryzae strains WAA42, Benin, Bouriz, membrane extracts) it was 2 to 4.5 nM; in data set [6] it was 52 nM. The “recovered PA1b after incubation with insect proteins versus heat-denatured control” value in data set [2] was “without any difference between control and test assays”. For the same sequence, the “effect on fungal growth” value in the data set with C. albicans, with C. glabrata and in the data set on A. famigatus was “no effect was detected” in each case. Besides, the Kd / binding entry in data set [5] (S. oryzae resistant strains Mex1, GV, China, ISOR3, membrane extracts) is “no binding detectable”.
